According to patent US20230265151A1, “GIP/GLP1 CO-AGONIST COMPOUNDS” (priority 2020, published 2023):
Like-named read-outs stand apart in the source and are kept apart here.

Assays:
Assay type in all cases: cell-based
hGIPR = target: T1, hGIPR (Homo sapiens, UniProt P48546); assay: Functional cAMP formation (HTRF) in HEK-293 clonal cells expressing hGIPR, 0.1% bovine casein, without or with 1.0% human serum albumin; conditions: for EC50: geometric mean
T1 construct: expressed in transfected cells
T1 sequence (P48546 22-466): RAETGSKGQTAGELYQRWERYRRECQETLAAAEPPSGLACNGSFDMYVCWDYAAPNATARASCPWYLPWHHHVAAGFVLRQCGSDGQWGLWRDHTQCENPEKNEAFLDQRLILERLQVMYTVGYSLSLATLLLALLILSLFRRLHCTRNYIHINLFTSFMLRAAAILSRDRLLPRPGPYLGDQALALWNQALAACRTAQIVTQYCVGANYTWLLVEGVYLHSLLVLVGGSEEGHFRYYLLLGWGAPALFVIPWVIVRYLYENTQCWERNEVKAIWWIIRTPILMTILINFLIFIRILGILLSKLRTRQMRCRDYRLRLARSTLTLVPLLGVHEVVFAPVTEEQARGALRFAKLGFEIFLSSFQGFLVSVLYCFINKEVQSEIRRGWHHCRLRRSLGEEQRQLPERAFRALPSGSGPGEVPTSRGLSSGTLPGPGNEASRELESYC
In short: (§1)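 Cells were stimulated with peptide for 30 min at 37° C, then lysed in buffer carrying cAMP-d2 and anti-cAMP Eu3+-cryptate for a competitive HTRF read after at least 60 min at room temperature. The 665/620 nm ratio was converted to nM cAMP against a standard curve.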

hGCGR = target: T2, hGCGR (Homo sapiens, UniProt P47871); assay: Functional cAMP formation (HTRF) in HEK-293 clonal cells expressing hGCGR, 0.1% bovine casein, without or with 1.0% human serum albumin; conditions: geometric mean
T2 construct: expressed in transfected cells
T2 sequence (P47871 26-477): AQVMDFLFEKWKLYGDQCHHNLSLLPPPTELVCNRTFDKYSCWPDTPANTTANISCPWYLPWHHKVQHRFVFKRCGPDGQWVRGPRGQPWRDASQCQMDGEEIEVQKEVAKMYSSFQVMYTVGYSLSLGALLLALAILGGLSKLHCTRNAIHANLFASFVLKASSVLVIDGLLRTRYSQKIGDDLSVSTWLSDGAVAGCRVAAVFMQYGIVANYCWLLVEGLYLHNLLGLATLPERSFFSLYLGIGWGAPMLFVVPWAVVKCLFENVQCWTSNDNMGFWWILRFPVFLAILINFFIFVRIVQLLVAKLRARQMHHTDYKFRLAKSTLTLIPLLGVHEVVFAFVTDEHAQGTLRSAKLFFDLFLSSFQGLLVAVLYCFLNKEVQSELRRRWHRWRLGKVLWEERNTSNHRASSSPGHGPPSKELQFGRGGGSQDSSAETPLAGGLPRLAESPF
In short: as §1

hGLP-1R = hGLP-1R (Homo sapiens, UniProt P43220); assay: Functional cAMP formation (HTRF) in HEK-293 clonal cells expressing hGLP-1R, 0.1% bovine casein, without or with 1.0% human serum albumin; set-up: expressed in transfected cells; conditions: for EC50: geometric mean
Chain of hGLP-1R (P43220 24-463): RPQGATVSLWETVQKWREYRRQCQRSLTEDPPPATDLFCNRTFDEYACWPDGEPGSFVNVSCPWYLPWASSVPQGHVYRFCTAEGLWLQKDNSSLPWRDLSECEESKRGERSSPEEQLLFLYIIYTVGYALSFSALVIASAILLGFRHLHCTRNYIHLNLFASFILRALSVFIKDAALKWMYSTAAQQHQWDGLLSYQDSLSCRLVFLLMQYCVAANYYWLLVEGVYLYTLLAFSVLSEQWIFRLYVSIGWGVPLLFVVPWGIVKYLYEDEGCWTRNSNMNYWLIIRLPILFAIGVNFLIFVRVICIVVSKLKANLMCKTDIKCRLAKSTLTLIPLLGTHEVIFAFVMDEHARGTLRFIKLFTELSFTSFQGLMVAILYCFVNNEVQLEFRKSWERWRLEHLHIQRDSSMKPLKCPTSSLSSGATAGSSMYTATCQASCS
In short: as §1

[1] = 0.1% bovine casein and 1.0% human serum albumin, 37° C., read-out: hGIPR EC50, nM (SEM, n)
[2] = HEK293, 0.1% bovine casein and 1.0% human serum albumin, 37° C., percent of maximal response to GIP(1-42)NH2, read-out: hGIPR Emax, % ± SEM
[3] = HEK293, percent of maximal response to GIP(1-42)NH2, 37° C., 0.1% bovine casein, arithmetic mean, read-out: hGIPR Emax, % ± SEM
[4] = 0.1% bovine casein and 1.0% human serum albumin, 37° C., read-out: hGCGR EC50, nM (SEM, n)
[5] = cAMP, incubated at 37° C., 0.1% bovine casein (no human serum albumin), read-out: hGCGR EC50, nM (SEM, n)
[6] = 0.1% bovine casein and 1.0% human serum albumin, 37° C., read-out: hGLP-1R EC50, nM (SEM, n)

Structure (SMILES)	EC50 (hGIPR; [1])	Emax (hGIPR; [2])	Emax (hGIPR; [3])	EC50 (hGCGR; [4])	EC50 (hGCGR; [5])	EC50 (hGLP-1R; [6])	Emax (hGIPR; HEK293, cAMP, 37° C., 0.1% bovine casein, percent of maximal response to GIP(1-42)NH2, arithmetic mean, read-out: hGIPR Emax, % ± SEM)	EC50 (hGCGR; cAMP, 37° C., 0.1% bovine casein (no human serum albumin), read-out: hGCGR EC50, nM (SEM, n))	Emax (hGLP-1R; HEK293, 0.1% bovine casein and 1.0% human serum albumin, 37° C., percent of maximal response to GLP-1(7-36)NH2, read-out: hGLP-1R Emax, % ± SEM)	Emax (hGLP-1R; HEK293, cAMP, 37° C., 0.1% bovine casein, percent of maximal response to GLP-1(7-36)NH2, arithmetic mean, read-out: hGLP-1R Emax, % ± SEM)	EC50 (hGLP-1R; cAMP, 37° C., 0.1% bovine casein (no human serum albumin), read-out: hGLP-1R EC50, nM (SEM, n))	Emax (hGLP-1R; HEK293, percent of maximal response to GLP-1(7-36)NH2, 37° C., 0.1% bovine casein, arithmetic mean, read-out: hGLP-1R Emax, % ± SEM)	Emax (hGIPR; HEK293, read-out: hGIPR Emax, % ± SEM, 0.1% bovine casein and 1.0% human serum albumin, 37° C., percent of maximal response to GIP(1-42)NH2)	EC50 (hGIPR; hGIPR EC50, nM (SEM, n), 0.1% bovine casein and 1.0% human serum albumin, 37° C.)	EC50 (hGIPR; hGIPR EC50, nM (SEM, n), cAMP, incubated at 37° C., 0.1% bovine casein (no human serum albumin))	EC50 (hGCGR; hGCGR EC50, nM (SEM, n), 0.1% bovine casein and 1.0% human serum albumin, 37° C.)	EC50 (hGCGR; hGCGR EC50, nM (SEM, n), cAMP, incubated at 37° C., 0.1% bovine casein (no human serum albumin))	Emax (hGLP-1R; HEK293, read-out: hGLP-1R Emax, % ± SEM, 0.1% bovine casein and 1.0% human serum albumin, 37° C., percent of maximal response to GLP-1(7-36)NH2)	EC50 (hGLP-1R; hGLP-1R EC50, nM (SEM, n), 0.1% bovine casein and 1.0% human serum albumin, 37° C.)	EC50 (hGLP-1R; hGLP-1R EC50, nM (SEM, n), cAMP, incubated at 37° C., 0.1% bovine casein (no human serum albumin))
CC[C@H](C)[C@H](NC(=O)[C@H](CC(C)C)NC(=O)[C@](C)(Cc1ccc(O)cc1)NC(=O)[C@@H](CCC(=O)O)NC(=O)[C@@H](NC(=O)[C@H](Cc1ccccc1)NC(=O)[C@H](CCC(=O)O)NC(=O)C(C)(C)NC(=O)[C@H](CCC(N)=O)NC(=O)[C@H](C)NC(=O)[C@H](CCCCNC(=O)COCCOCCNC(=O)COCCOCCNC(=O)CCCCCCCCCCCCC(=O)O)NC(=O)[C@H](CCCN)NC(=O)[C@H](CC(=O)O)NC(=O)[C@H](CC(C)C)NC(=O)[C@](C)(CC(C)C)NC(=O)[C@@H](NC(=O)[C@H](CO)NC(=O)[C@H](Cc1ccncc1)NC(=O)[C@H](CC(=O)O)NC(=O)[C@H](CO)NC(=O)[C@@H](NC(=O)[C@](C)(Cc1ccccc1F)NC(=O)[C@@H](NC(=O)CNC(=O)[C@H](CCC(=O)O)NC(=O)C(C)(C)NC(=O)[C@@H](N)Cc1ccc(O)cc1)[C@@H](C)O)[C@@H](C)O)[C@@H](C)CC)[C@@H](C)CC)C(=O)N[C@@H](CCCCNC(=O)COCCOCCNC(=O)COCCOCCNC(=O)CCCCCCCCCCCCC(=O)O)C(=O)NCC(=O)NCC(=O)N1CCC[C@H]1C(=O)N[C@@H](CO)C(=O)N[C@@H](CO)C(=O)NCC(=O)N[C@@H](C)C(=O)N1CCC[C@H]1C(=O)N1CCC[C@H]1C(=O)N1CCC[C@H]1C(=O)N[C@@H](CO)C(N)=O [Example 210]	0.44 nM	68.1%	92.1%	> 9950 nM	> 9950 nM	8.86 nM														
CCCC[C@H](NC(=O)[C@H](CC(=O)O)NC(=O)[C@H](CO)NC(=O)[C@@H](NC(=O)[C@](C)(Cc1ccccc1F)NC(=O)[C@@H](NC(=O)CNC(=O)[C@H](CCC(=O)O)NC(=O)C(C)(C)NC(=O)[C@@H](N)Cc1ccc(O)cc1)[C@@H](C)O)[C@@H](C)O)C(=O)N[C@@H](CO)C(=O)N[C@H](C(=O)N[C@@](C)(CC(C)C)C(=O)N[C@@H](CC(C)C)C(=O)N[C@@H](CC(=O)O)C(=O)N[C@@H](CCCN)C(=O)N[C@H](C(=O)N[C@@H](C)C(=O)N[C@@H](CCC(N)=O)C(=O)NC(C)(C)C(=O)N[C@@H](CCC(=O)O)C(=O)N[C@@H](Cc1ccccc1)C(=O)N[C@H](C(=O)N[C@@H](CCCCNC(=O)COCCOCCNC(=O)COCCOCCNC(=O)CC[C@H](NC(=O)CCCCCCCCCCCCC(=O)O)C(=O)O)C(=O)N[C@@](C)(Cc1ccc(O)cc1)C(=O)N[C@@H](CC(C)C)C(=O)N[C@H](C(=O)N[C@@H](CCCCNC(=O)COCCOCCNC(=O)COCCOCCNC(=O)CC[C@H](NC(=O)CCCCCCCCCCCCC(=O)O)C(=O)O)C(=O)NCC(=O)NCC(=O)N1CCC[C@H]1C(=O)N[C@@H](CO)C(=O)N[C@@H](CO)C(=O)NCC(=O)N[C@@H](C)C(=O)N1CCC[C@H]1C(=O)N1CCC[C@H]1C(=O)N1CCC[C@H]1C(=O)N[C@@H](CO)C(N)=O)[C@@H](C)CC)[C@@H](C)CC)[C@@H](C)CC)[C@@H](C)CC [Example 269]	2.65 nM	87.3%		> 9950 nM			95.3%	> 9950 nM	105%	96.5%	1.72 nM									
CC[C@H](C)[C@H](NC(=O)[C@H](CC(C)C)NC(=O)[C@](C)(Cc1ccc(O)cc1)NC(=O)[C@@H](CCC(=O)O)NC(=O)[C@@H](NC(=O)[C@H](Cc1ccccc1)NC(=O)[C@H](CCC(=O)O)NC(=O)C(C)(C)NC(=O)[C@H](CCC(N)=O)NC(=O)[C@H](C)NC(=O)[C@H](CCCCNC(=O)COCCOCCNC(=O)COCCOCCNC(=O)CC[C@H](NC(=O)CCCCCCCCCCCCC(=O)O)C(=O)O)NC(=O)[C@H](CCCN)NC(=O)[C@H](CC(=O)O)NC(=O)[C@H](CC(C)C)NC(=O)[C@](C)(CC(C)C)NC(=O)[C@@H](NC(=O)[C@H](CN)NC(=O)[C@@H](NC(=O)[C@H](CC(=O)O)NC(=O)[C@H](CO)NC(=O)[C@@H](NC(=O)[C@](C)(Cc1ccccc1F)NC(=O)[C@@H](NC(=O)CNC(=O)[C@H](CCC(=O)O)NC(=O)C(C)(C)NC(=O)[C@@H](N)Cc1ccc(O)cc1)[C@@H](C)O)[C@@H](C)O)C(C)C)[C@@H](C)CC)[C@@H](C)CC)C(=O)N[C@@H](CCC(=O)O)C(=O)NCC(=O)NCC(=O)N[C@@H](CCCCNC(=O)COCCOCCNC(=O)COCCOCCNC(=O)CC[C@H](NC(=O)CCCCCCCCCCCCC(=O)O)C(=O)O)C(=O)N[C@@H](CO)C(=O)N[C@@H](CO)C(=O)NCC(=O)N[C@@H](C)C(=O)N1CCC[C@H]1C(=O)N1CCC[C@H]1C(=O)N1CCC[C@H]1C(=O)N[C@@H](CO)C(N)=O [Example 201]		80.5%	92.2 ± 3.26%	> 9950 nM	> 9950 nM	25.1 nM						105 ± 4.51%								
CC[C@H](C)[C@H](NC(=O)[C@H](CC(C)C)NC(=O)[C@](C)(Cc1ccc(O)cc1)NC(=O)[C@H](CCCCNC(=O)COCCOCCNC(=O)COCCOCCNC(=O)CC[C@H](NC(=O)CCCCCCCCCCCCC(=O)O)C(=O)O)NC(=O)[C@@H](NC(=O)[C@H](Cc1ccccc1)NC(=O)[C@H](CCC(=O)O)NC(=O)C(C)(C)NC(=O)[C@H](CCC(N)=O)NC(=O)[C@H](C)NC(=O)[C@H](CCCCNC(=O)COCCOCCNC(=O)COCCOCCNC(=O)CC[C@H](NC(=O)CCCCCCCCCCCCC(=O)O)C(=O)O)NC(=O)[C@H](CCCN)NC(=O)[C@H](CC(=O)O)NC(=O)[C@H](CC(C)C)NC(=O)[C@](C)(CC(C)C)NC(=O)[C@@H](NC(=O)[C@H](CO)NC(=O)[C@H](Cc1ccncc1)NC(=O)[C@H](CC(=O)O)NC(=O)[C@H](CO)NC(=O)[C@@H](NC(=O)[C@](C)(Cc1ccccc1F)NC(=O)[C@@H](NC(=O)CNC(=O)[C@H](CCC(=O)O)NC(=O)C(C)(C)NC(=O)[C@@H](N)Cc1ccc(O)cc1)[C@@H](C)O)[C@@H](C)O)[C@@H](C)CC)[C@@H](C)CC)C(=O)N[C@@H](CCC(=O)O)C(=O)NCC(=O)NCC(=O)N1CCC[C@H]1C(=O)N[C@@H](CO)C(=O)N[C@@H](CO)C(=O)NCC(=O)N[C@@H](C)C(=O)N1CCC[C@H]1C(=O)N1CCC[C@H]1C(=O)N1CCC[C@H]1C(=O)N[C@@H](CO)C(N)=O [Example 16]													91.5 ± 1.01%	0.625 nM	0.0113 nM	> 9950 nM	> 9950 nM	98.3 ± 0.735%	9.06 nM	0.245 nM
